Data as given in article PMC6847237 (2019).
Values belong to the compound of their own block, whether it stands above or below them.

How the values were obtained:
[1] = test system: (GCAGCAGC)2 (RNA, mismatch bulge abasic) GCAGCAGC; assay: X-ray crystallography; conditions: RNA 0.75 mM, RNA:ligand 1:2 mixed
[2] = test system: (CAG)9 (RNA, repeat) CAGCAGCAGCAGCAGCAGCAGCAGCAG; assay: CD titration at 347.5 nm; conditions: 100 mM NaCl, 10 mM sodium cacodylate pH 7.0, ambient temperature, RNA 2.5 μM, 1:2 binding isotherm
[3] = test system: (CAG)9 (5'-biotinylated, immobilized) (RNA, repeat) CAGCAGCAGCAGCAGCAGCAGCAGCAG; assay: SPR single cycle kinetics; conditions: 150 mM NaCl; 10 mM HEPES pH 7.4, 3 mM EDTA, 0.005% P20, 5% DMSO; 0.1-0.5 μM ligand
[4] = test system: (CGG)9 (5'-biotinylated, immobilized) (RNA, repeat) CGGCGGCGGCGGCGGCGGCGGCGGCGG; assay: SPR single cycle kinetics; conditions: 150 mM NaCl; 10 mM HEPES pH 7.4, 3 mM EDTA, 0.005% P20, 5% DMSO; highest tested 0.5 μM
[5] = test system: (CCG)9 (5'-biotinylated, immobilized) (RNA, repeat) CCGCCGCCGCCGCCGCCGCCGCCGCCG; assay: SPR single cycle kinetics; conditions: 150 mM NaCl; 10 mM HEPES pH 7.4, 3 mM EDTA, 0.005% P20, 5% DMSO; highest tested 0.5 μM
[6] = test system: GCAG(2′-SeCH3-C)AGC (RNA, mismatch bulge abasic, 2'-methylseleno cytidine at 5) GCAGCAGC; assay: X-ray crystallography (SAD); conditions: 5 mM MgCl2; TRIS pH 7.5, 30% PEG 400; RNA 0.75 mM, RNA:ligand 1:2 mixed
[7] = test system: (UCAACAGUUGA)2 (RNA, mismatch bulge abasic) UCAACAGUUGA; assay: UV melting at 260 nm, median method; conditions: 100 mM NaCl; 10 mM sodium cacodylate pH 7.0, 2% DMSO; RNA 5 μM, CMBL3a 20 μM

binding ([1]; 10 mM MgCl2, 1 M Li2SO4, cacodylate pH 6.0): yes | apparent Kd [2]: 70.5 µM | binding [3]: yes | binding [4]: no | binding [5]: no | binding [6]: yes | binding [7]: yes
Compound: O=C1Nc2ccc3ccc(nc3n2)CNCc2ccc3ccc(nc3n2)NC(=O)OCC/C=C/CCO1

binding ([1]; 20 mM magnesium acetate, 1.7 M ammonium sulfate, cacodylate pH 6.0): yes
Compound: O=C1Nc2ccc3ccc(nc3n2)CNCc2ccc3ccc(nc3n2)NC(=O)OCC/C=C\CCO1

binding ([1]; 2 mM MgCl2, 5 mM hexamine cobalt chloride, MOPS pH 7.0, Tacsimate): yes
Compound: O=C1Nc2ccc3ccc(nc3n2)CNCc2ccc3ccc(nc3n2)NC(=O)OCCCNCCCO1
